From patent US20060135568A1, “Methods of treating microbial infections in humans and animals” (priority 2002, published 2006)
“Also recorded” adds a separate entry of the source.

Test system: b-subunit of ATP synthase (atpF, Rv1306) and hsp (Rv0251c)
Format: cell-based, M. bovis BCG (Pasteur strain, ATCC 35734)

SMILES	overexpression of hsp and b-subunit of ATP synthase on 2-D gels	time to overexpression of both proteins post exposure
CCCCCCCCS(=O)(=O)CC(N)=O [OSA, n-octanesulfonylacetamide]	significant overexpression	≤ 3.5 h
NNC(=O)c1ccncc1 [INH, isoniazid]	Neither; also recorded: failed to result in overexpression	
C/C=C/C/C=C/CCC(=O)[C@H]1O[C@H]1C(N)=O [cerulenin]	Neither; also recorded: failed to result in overexpression	
